According to patent publication US20200355685A1, “REAGENT SET FOR DETECTING INTERACTIONS BETWEEN BIOMOLECULES AND THEIR REGULATORY FACTORS, AND APPLICATIONS” (TSINGHUA UNIVERSITY, priority 2017, published 2020):
No end group written: not given here. Me3 = trimethyl (trimethylated lysine)

Columns and labels:
[1] = target: T1, interaction between P53 and MDM2 (Homo sapiens, UniProt Q00987); assay: Intracellular detection of the P53-MDM2 interaction in HEK293 cells co-transfected with GFP-NUPN-P53 and mCherry-MDM2; format: cell-based; conditions: system 8, final concentration of 5 μM, same field before and after treatment
Method: Each recombinant vector obtained in step I was transfected (or co-transfected) into HEK293 cells (adherent culture) according to the following combinations, and the transfection reagent Hifectin I (Beijing Dinoao Biotechnology Co., Ltd.) was used, and the operation was performed according to the instruction of the reagent. The combinations and the amount of the transfection vector(s) per 105 HEK293 cells were as follows:
combination 1: pcDNA3.1-GFP-NUPN, the transfection dosage of the vector was 1 μg; combination 2: pcDNA3.1-mCherry, the transfection dosage of the vector was 1 μg; combination 3: pcDNA3.1-GFP-NUPN+pcDNA3.1-mCherry, the transfection dosages of these two vectors were 0.5 μg and 0.5 μg, respectively; combination 4: pcDNA3.1-GFP-NUPN-P53, the transfection dosage of the vector was 1 μg; combination 5: pcDNA3.1-GFP-NUPN-P53+pcDNA3.1-mCherry, the transfection dosages of these two vectors were 0.5 μg and 0.5 μg, respectively; combination 6: pcDNA3.1-mCherry-MDM2, the transfection dosage of the vector was 1 μg; combination 7: pcDNA3.1-GFP-NUPN+pcDNA3.1-mCherry-MDM2, the transfection dosages of these two vectors were 0.5 μg and 0.5 μg, respectively; combination 8: pcDNA3.1-GFP-NUPN-P53+pcDNA3.1-mCherry-MDM2, the transfection dosages of these two vectors were 0.5 μg and 0.5 μg, respectively. […]

[2] = target: T1, interaction between P53 and MDM2; assay: Phase transition droplet detection of the effect of a regulatory factor on the P53-MDM2 interaction (SGS-P53, mCherry-MDM2, His-SGP); format: binding; design: His-tag (N); made in house; host or cells: E. coli BL21 (DE3); conditions: MI-773 1.25-25 μM, ampicillin 25 μM; SGS-P53, mCherry-MDM2 and His-SGP all 0.5 μM; static incubation at 4° C.
Method: the solutions of SGS-P53, mCherry-MDM2, His-SGP and ampicillin were mixed, and then 20 μL of the resulting mixture was transferred to a 384-microwell plate to obtain an ampicillin control system and the concentrations of SGS-P53, mCherry-MDM2 and His-SGP were all 0.5 μM in the ampicillin control system, and the concentration of ampicillin was 25 μM;
According to the above system, the solutions of SGS-P53, mCherry-MDM2, His-SGP and MI-773 were mixed, and then 20 μL of the resulting mixture was transferred into a 384-microwell plate. Different concentrations of MI-773 were set to obtain experimental systems with different concentrations of MI-773. The concentration of MI-773 in each experimental system was 0 (i.e., KMEI buffer), 1.25, 2.5, 5, 10, 15, and 25 μM, respectively, one concentration per well, and in each experimental system, the concentrations of SGS-P53, mCherry-MDM2 and His-SGP were all 0.5 μM.
Each of the above systems was subjected to static incubation at 4° C. until the phase transition droplets in the systems in which phase transitions occurred completely settled to the bottom of the well plate, and the image of each system was collected using a confocal high-content imaging microscope and the intensity of the red fluorescence signal in the phase transition droplets in each well plate was counted and analyzed.

[3] = target: T2, interaction between FKBP and FRB (Homo sapiens, UniProt P42345+P62942); assay: Phase transition droplet detection of the effect of a regulatory factor on the FKBP-FRB interaction (SGS-FKBP, mCherry-FRB, His-SGP); format: binding; conditions: rapamycin 0.2-1.0 μM, ampicillin control, mCherry-FRB and His-SGP all 1 μM, static incubation at 4° C.
T2 construct: His-SGS (His-tag, SmF, GFP, SH3 and linking regions); His-tag (N); made in house; host or cells: E. coli BL21 (DE3)
Source text: Different concentrations of rapamycin were set to obtain experimental systems with different concentrations of rapamycin.

CD = target: T3, CD (Homo sapiens, UniProt P83916); assay: Phase transition droplet detection of the interaction between H3K9me3 and CD (SGS-CD, His-SGP, Hfq-mCherry-PDZ); format: binding; conditions: systems 15-20 with Hfq-mCherry-PDZ; mixture completely composed of the named peptide; all components 1 μM
T3 construct: His-SGS (His-tag, SmF, GFP, SH3 and linking regions); made in house; host or cells: E. coli BL21 (DE3)
Method: The concentrations of His-SGS, SGS-CD, His-SGP, Hfq-mCherry-PDZ, mCherry-PDZ and the mixture of H3K9me3-KKETPV and H3K9-KKETPV in the corresponding systems were all 1 μM:
In Table 2, “+” represents that the substance is contained; “−” represents that the substance is not contained; “*” represents a mixture of H3K9me3-KKETPV and H3K9-KKETPV. In the systems 9-14, the molar percentages of H3K9me3-KKETPV in the mixture of H3K9me3-KKETPV and H3K9-KKETPV were 0, 0.2, 0.4, 0.6, 0.8 and 1.0, respectively, and in the systems 15-20, the molar percentages of H3K9me3-KKETPV in the mixture of H3K9me3-KKETPV and H3K9-KKETPV were 0, 0.2, 0.4, 0.6, 0.8 and 1.0, respectively.
Each of the above systems was subjected to a static incubation at 4° C. until the phase transition droplets in the systems in which phase transitions occurred completely settled to the bottom of the well plate, and the images were collected using a confocal high-content imaging microscope.

T1 sequence (Q00987 with tags, fused parts or gaps): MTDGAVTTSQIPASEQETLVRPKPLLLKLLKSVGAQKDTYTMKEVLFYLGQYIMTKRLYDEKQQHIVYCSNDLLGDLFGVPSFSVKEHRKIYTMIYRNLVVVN
T3 sequence (P83916 19-83): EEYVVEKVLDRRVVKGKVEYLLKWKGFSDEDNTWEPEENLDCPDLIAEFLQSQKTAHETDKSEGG
T2 sequence (P62942 with tags, fused parts or gaps): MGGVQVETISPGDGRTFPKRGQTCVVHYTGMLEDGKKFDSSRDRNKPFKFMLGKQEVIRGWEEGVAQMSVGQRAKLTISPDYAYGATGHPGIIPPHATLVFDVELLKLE
T2 sequence (P42345 with tags, fused parts or gaps): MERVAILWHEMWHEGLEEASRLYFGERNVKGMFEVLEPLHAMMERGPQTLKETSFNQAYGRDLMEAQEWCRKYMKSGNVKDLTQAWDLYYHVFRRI

Molecule	effect on the interaction between P53 and MDM2 in cells (accumulation of red fluorescent signal in the second phase) [1]	effect on the interaction between P53 and MDM2 (red fluorescence signal in the phase transition droplets) [2]	effect on the interaction between FRB and FKBP (red fluorescence signal in the phase transition droplets) [3]	red fluorescence signal (mCherry) in the phase transition droplets (CD)
CN[C@@H](C)C(=O)N[C@H](C(=O)N1CCC[C@H]1C(=O)Nc1snnc1-c1ccccc1)C1CCCCC1 [GDC0152]	does not affect			
CC(C)(C)C[C@@H]1N[C@@H](C(=O)N[C@H]2CC[C@H](O)CC2)[C@H](c2cccc(Cl)c2F)[C@]12C(=O)Nc1cc(Cl)ccc12 [MI-773]	significantly inhibit	significantly inhibit		
CC1(C)S[C@@H]2[C@H](NC(=O)[C@H](N)c3ccccc3)C(=O)N2[C@H]1C(=O)O [ampicillin]		does not affect	does not affect	
ARTK (Me) 3QTARGGSGGSGGSWGGSKKETPVAV (ARTK(Me3)QTARGGSGGSGGSWGGSKKETPVAV) [H3K9me3-KKETPV]				reached the highest
H3K9-KKETPV: unmethylated peptide as shown in SEQ ID NO: 23, used as a control (ARTKQTARGGSGGSGGSWGGSKKETPVAV)				no significant red fluorescence
